Results as given in US12152255B2, “ω-Transaminase mutant obtained by DNA synthetic shuffling combined mutation and use” (priority 2020, dated 2024).
Where two headings read alike, the source gives them in different places.

Columns and labels:
[1] = target: Aspergillus terreus ω-transaminase mutant F115L-H210N-E253A-I295V (parent SEQ ID NO: 1; gene SEQ ID NO: 5) (Aspergillus terreus, UniProt Q0C8G1); experiment: Kinetic parameters, transamination (acetophenone formation at 245 nm), F115L-H210N-E253A-I295V; type: biochemical
CC(=O)C(=O)O = experiment: Kinetic parameters, transamination (acetophenone formation at 245 nm), I77L-E133A-N245D-G292D; type: biochemical, Aspergillus terreus; conditions: other: I77L-E133A-N245D-G292D, phosphate buffer pH 8.0, 0.1 mM PLP
C[C@@H](N)c1ccccc1 = experiment: as above; type: biochemical, Aspergillus terreus; conditions: other: I77L-E133A-N245D-G292D, phosphate buffer pH 8.0, 0.1 mM PLP
[2] = target: Aspergillus terreus ω-transaminase mutant F115L-H210N-M150C-M280C (parent SEQ ID NO: 1; gene SEQ ID NO: 3) (Aspergillus terreus, UniProt Q0C8G1, E253A/F115L/H210N/M150C/M280C); experiment: Kinetic parameters, transamination (acetophenone formation at 245 nm), F115L-H210N-M150C-M280C; type: biochemical; conditions: phosphate buffer pH 8.0, 0.1 mM PLP
[3] = target: Aspergillus terreus ω-transaminase mutant F115L-H210N (parent SEQ ID NO: 1; gene SEQ ID NO: 4) (Aspergillus terreus, UniProt Q0C8G1, D231A/F115L/H210N); experiment: Kinetic parameters, transamination (acetophenone formation at 245 nm), F115L-H210N; type: biochemical; conditions: phosphate buffer pH 8.0, 0.1 mM PLP
[4] = target: Aspergillus terreus ω-transaminase mutant I77L-F115L-E133A-H210N-N245D (parent SEQ ID NO: 1; gene SEQ ID NO: 6) (Aspergillus terreus, UniProt Q0C8G1, D224K/E133A/F115L/H210N/I77L/N245D); experiment: Kinetic parameters, transamination (acetophenone formation at 245 nm), I77L-F115L-E133A-H210N-N245D; type: biochemical; conditions: phosphate buffer pH 8.0, 0.1 mM PLP
[5] = target: Aspergillus terreus ω-transaminase mutant I77L-Q97E-F115L-L118T-E253A-G292D (parent SEQ ID NO: 1; gene SEQ ID NO: 7) (Aspergillus terreus, UniProt Q0C8G1, D224A/E253A/F115L/G292D/I77L/L118T/Q97E); experiment: Kinetic parameters, transamination (acetophenone formation at 245 nm), I77L-Q97E-F115L-L118T-E253A-G292D; type: biochemical; conditions: phosphate buffer pH 8.0, 0.1 mM PLP
[6] = target: Aspergillus terreus ω-transaminase mutant I77L-E133A-N245D-G292D (parent SEQ ID NO: 1; gene SEQ ID NO: 8) (Aspergillus terreus, UniProt Q0C8G1, E133A/G292D/I77L/N245D); experiment: Kinetic parameters, transamination (acetophenone formation at 245 nm), I77L-E133A-N245D-G292D; type: biochemical; conditions: phosphate buffer pH 8.0, 0.1 mM PLP
[7] = tested on: Aspergillus terreus ω-transaminase mutant H210N-N245D-E253A-G292D (parent SEQ ID NO: 1; gene SEQ ID NO: 9); experiment: Kinetic parameters, transamination (acetophenone formation at 245 nm), H210N-N245D-E253A-G292D; type: biochemical; conditions: phosphate buffer pH 8.0, 0.1 mM PLP
[8] = target: T1, Aspergillus terreus ω-transaminase, wild type (WT-ATA), SEQ ID NO: 1 (Aspergillus terreus, UniProt Q0C8G1); experiment: Kinetic parameters, transamination (acetophenone formation at 245 nm), WT-ATA; conditions: phosphate buffer pH 8.0, 0.1 mM PLP
T1 sequence (Q0C8G1 1-325): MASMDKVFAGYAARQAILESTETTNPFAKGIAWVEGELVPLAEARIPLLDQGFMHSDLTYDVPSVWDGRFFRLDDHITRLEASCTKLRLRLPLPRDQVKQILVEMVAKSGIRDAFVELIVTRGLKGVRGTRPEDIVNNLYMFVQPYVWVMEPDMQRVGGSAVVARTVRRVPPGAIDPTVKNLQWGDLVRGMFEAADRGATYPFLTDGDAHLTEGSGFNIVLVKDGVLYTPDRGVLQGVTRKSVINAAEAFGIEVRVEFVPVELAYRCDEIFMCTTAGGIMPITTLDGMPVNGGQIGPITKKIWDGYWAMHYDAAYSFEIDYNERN

[9] = substrate: CC(=O)C(=O)O; experiment: purified protein, by the assay type; conditions: other: WT-ATA, phosphate buffer pH 8.0, 0.1 mM PLP
[10] = phosphate buffer pH 8.0, 0.1 mM PLP

Molecule: C[C@@H](N)c1ccccc1 [α-MBA, (R)-(+)-α-methylbenzylamine]
- Km ([1]; read-out: Km^α-MBA, phosphate buffer pH 8.0, 0.1 mM PLP): 800 ± 30 µM

Molecule: Aspergillus terreus ω-transaminase mutant I77L-E133A-N245D-G292D (parent SEQ ID NO: 1; gene SEQ ID NO: 8) (Aspergillus terreus NIH2624; E133A/G292D/I77L/N245D)
- Km (CC(=O)C(=O)O): 2590 ± 20 µM
- Km (C[C@@H](N)c1ccccc1): 840 ± 50 µM

Molecule: CC(=O)C(=O)O [pyruvate, pyruvic acid]
- Kcat^pyruvate [2]: 3.87 ± 0.03 s⁻¹
- kcat/Km^pyruvate [2]: 1450 M⁻¹ s⁻¹
- Kcat^pyruvate [3]: 2.55 ± 0.01 s⁻¹
- kcat/Km^pyruvate [3]: 1710 M⁻¹ s⁻¹
- Kcat^pyruvate [1, 10]: 3.17 ± 0.01 s⁻¹
- kcat/Km^pyruvate [1, 10]: 2030 M⁻¹ s⁻¹
- Km ([1]; read-out: Km^pyruvate, phosphate buffer pH 8.0, 0.1 mM PLP): 1560 ± 70 µM
- Kcat^pyruvate [4]: 1.96 ± 0.03 s⁻¹
- kcat/Km^pyruvate [4]: 990 M⁻¹ s⁻¹
- Kcat^pyruvate [5]: 2.76 ± 0.01 s⁻¹
- kcat/Km^pyruvate [5]: 1330 M⁻¹ s⁻¹
- Kcat^pyruvate [6]: 3.05 ± 0.02 s⁻¹
- kcat/Km^pyruvate [6]: 1180 M⁻¹ s⁻¹
- Kcat^pyruvate [7]: 1.89 ± 0.03 s⁻¹
- kcat/Km^pyruvate [7]: 3010 M⁻¹ s⁻¹
- Kcat^pyruvate [8]: 0.50 ± 0.01 s⁻¹
- kcat/Km^pyruvate [8]: 2220 M⁻¹ s⁻¹

B1: Aspergillus terreus ω-transaminase, wild type (WT-ATA), SEQ ID NO: 1 (Aspergillus terreus NIH2624) (protein)
chain: MASMDKVFAGYAARQAILESTETTNPFAKGIAWVEGELVPLAEARIPLLDQGFMHSDLTYDVPSVWDGRFFRLDDHITRLEASCTKLRLRLPLPRDQVKQILVEMVAKSGIRDAFVELIVTRGLKGVRGTRPEDIVNNLYMFVQPYVWVMEPDMQRVGGSAVVARTVRRVPPGAIDPTVKNLQWGDLVRGMFEAADRGATYPFLTDGDAHLTEGSGFNIVLVKDGVLYTPDRGVLQGVTRKSVINAAEAFGIEVRVEFVPVELAYRCDEIFMCTTAGGIMPITTLDGMPVNGGQIGPITKKIWDGYWAMHYDAAYSFEIDYNERN
- Km [9]: 230 ± 20 µM
